Values joined by “and” are separate entries in the source; they are usually repeats but may differ in a detail not shown here. Identical values can stand only once.
What was measured:
[1] = target: Vas déferens de souris (Mus musculus, UniProt P32300); assay: Transmural electrical stimulation of mouse vas deferens (Hughes and Kosterlitz); format: cell-based; settings: contact time 3 minutes, read-out: % d'inhibition
Procedure: On a utilisé une technique de stimulation transmu- rale du canal différent de la souris, adaptée à celle décrite par HUCHES et KOSTERLITZ (J.HUGUES, H.W.KOSTERLITZ and Frances M.LESLIE, "Effect of morphine ou adrenergic transmission in the mouse vas deferens. Assessment of ago- nist and antagonist potencies of narcotic analgesics".-Br J. Pharmac. 53 371-381 (1975).
• - Les essais ont été réalisés dans une cuve de 7 ml irriguée par une solution de KREBS. • - Les stimulations électriques, supramaximales (6 par minute) étaient ajustées à chaque essai. • - Les concentrations des différents produits étudiés sont exprimées en nM par litre. • - Pour chaque concentration le temps de contact a été de 3 minutes. Dans les cas où le maximum d'inhibition a été atteint en un temps plus court, le fait a été signalé. Chaque essai était séparé du suivant par une période de 10 à 20 minutes. • - Les résultats sont exprimés en pourcentage d'inhibition de la concentration consécutive à la stimulation électrique du canal déférent. On a ensuite calculé les doses actives 50 par la méthode de Parker & Wand (J.Pharm. Exper. Therap.96-99 (1949).

[2] = Acute toxicity in the mouse; parameters: species or system souris; settings: in vivo, IV route, read-out: D.L. 5a
Procedure: Les dérivés de formule générale I bénéficient d'une excellente tolérance et d'une faible toxicité qui a été plus particulièrement étudiée sur lés dérivés N° 12 et 13, qui ont fait l'objet d'une épreuve de toxicité aiguë chez la souris.
Les D.L. 5a obtenues sont respectivement de : • 725 ± 25 mg/kg par voie IV pour le dérivé.n° 12. • et 892 ± 31 mg/kg "" " pour le dérivé n° 13.

[3] = target: iléon de cobaye (Cavia porcellus, UniProt A0ACM8Q262); assay: cell-based; format: cell-based; settings: for Activité Morphine =100: activity relative to morphine (= 100) in concomitant tests
Procedure: I. Action analgésique par rapport à la morphine comme substance de référence qui a été contrôlée • a) Sur organe isolé. - iléon de cobaye
On a utilisé la technique de stimulation transmu- rale de l'iléon de cobaye de PATON (W.D.M. PATON, "The rés- ponse of the guinea-pig ileum to electrical stimulation by coaxial electrodes" - J. Physiol. (London), 127, 40P-41P (1955) et PATON (W.D.M.) - Brit.J. Pharmacol. 11).
• - Les essais ont été réalisés dans une cuve de 35 ml irriguée par une solution de KREBS. • - Les stimulations électriques, supramaximales (6 par minute - […]) étaient ajustées à chaque essai. Courant rectangulaire - durée-0,5 milliseconde. • - Les concentrations des différents produits étudiés, ainsi que celles de la morphine qui a servi de corps de référence, sont exprimées en nanomoles (nM) par litre. • - Pour chaque concentration, le temps de contact a été de 3 minutes. Chaque essai était séparé du suivant par une période de 10 à 20 minutes. • - Les résultats sont exprimés en pourcentage d'inhibition de la concentration consécutive à la stimulation électri--que de l'iléon. On a ensuite calculé les doses actives 50 par la méthode de Parker et Waud (J. of pharmacology, 1971, 177, n°4) qui ont été comparées à celle de la morphine dans des essais concomitants.

[4] = target: sites de liaison à haute et moyenne affinité de la leucine-enképhaline 3-R de membranes striatales de souris; assay: Competition with tritiated Leu-enkephalin binding on mouse striatal membranes; settings: displacement of a fixed concentration of Leucine-Enképhaline 3-H
Procedure: On a déterminé le pouvoir compétiteur des dérivés de l'invention vis-à-vis des sites de liaison à haute et moyenne affinité de la leucine-enképhaline 3-R de membranes striatales de souris.
Les conditions de préparation des membranes et d'incubation ont été les mêmes que celles qui sont décrites dans Audigier et Coll. (C. Acad. Sciences plus Euro- pean J. of Pharmacol.).
Des concentrations croissantes des divers composés synthétisés ont été opposées à une concentration fixe de Leucine-Enképhaline 3-H et les déplacements observés ont permis dans chaque cas de déterminer une constante d'inhi- bition (Ki).

[5] = test system: rat; assay: Catalepsy in the rat (psychotropic action); format: in vivo
Text: Elle a été évaluée par la recherche d'une catalepsie chez le rat.
Ces essais ont été réalisés avec des rats femelles indexes d'organisées pathogènes spécifiques pesant de 200 à 220 g.
L'effet cataleptique est mesuré en suspendant le rat par ses pattes antérieures au rebord de la cage d'expérience : un rat cataleptique reste dans cette position alors qu'un animal normal l'abandonne aussitôt, voire ne la prend pas du tout.
La catalepsie est appréciée de la façon suivante: • 0 : pas de catalepsie • 1 : catalepsie liminaire • 2 : catalepsie d'intensité moyenne • […] : catalepsie très prononcée
Les animaux sont traités par voie sous cutanée.
Les expériences ont été effectuées à l'aveugle, l'observateur ignorant les traitements.

[6] = test system: souris; assay: Hot plate test in the mouse (analgesia); settings: 10 mg/kg compared with morphine 1 mg/kg, taking molarities into account
[7] = test system: rat; assay: Castor oil diarrhoea test in the rat; format: in vivo
[8] = 2 heures after product, oral 3 mg/kg, 10 rats
[9] = 2 heures after product, oral 10 mg/kg, 10 rats (Codéine base: 20 rats)
[10] = 2 heures after product, oral 30 mg/kg, 10 rats
[11] = 4 heures after product, oral 3 mg/kg, 10 rats
[12] = 4 heures after product, oral 10 mg/kg, 10 rats (Codéine base: 20 rats)
[13] = 4 heures after product, oral 30 mg/kg, 10 rats

Chain of Vas déferens de souris (P32300 whole entry): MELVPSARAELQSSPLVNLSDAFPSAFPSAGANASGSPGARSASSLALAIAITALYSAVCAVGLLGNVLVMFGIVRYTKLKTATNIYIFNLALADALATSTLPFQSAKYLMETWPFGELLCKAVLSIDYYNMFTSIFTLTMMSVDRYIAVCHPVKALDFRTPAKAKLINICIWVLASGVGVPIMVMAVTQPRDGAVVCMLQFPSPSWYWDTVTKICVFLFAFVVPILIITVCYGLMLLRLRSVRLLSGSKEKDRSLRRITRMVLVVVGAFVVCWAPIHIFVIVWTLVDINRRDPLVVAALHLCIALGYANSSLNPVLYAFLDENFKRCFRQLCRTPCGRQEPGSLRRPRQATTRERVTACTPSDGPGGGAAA
Chain of iléon de cobaye (A0ACM8Q262 1-400): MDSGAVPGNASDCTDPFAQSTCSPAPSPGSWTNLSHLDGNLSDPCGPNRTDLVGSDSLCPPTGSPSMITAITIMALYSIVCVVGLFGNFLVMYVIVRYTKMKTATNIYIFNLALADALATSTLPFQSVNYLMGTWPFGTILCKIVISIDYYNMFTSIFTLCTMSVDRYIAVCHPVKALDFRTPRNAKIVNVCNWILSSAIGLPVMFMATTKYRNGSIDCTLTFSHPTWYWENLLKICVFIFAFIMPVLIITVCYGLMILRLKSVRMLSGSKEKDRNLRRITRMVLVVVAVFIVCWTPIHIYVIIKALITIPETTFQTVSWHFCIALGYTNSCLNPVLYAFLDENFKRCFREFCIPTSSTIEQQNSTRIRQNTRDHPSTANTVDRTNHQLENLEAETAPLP

Question: For `CSCC[C@H](NC(=O)[C@H](Cc1ccccc1)NC(=O)CNC(=O)[C@@H](C)NC(=O)[C@@H](N)Cc1ccc(O)cc1)C(=O)NCCCCCNS(=O)(=O)c1cccc2c(N(C)C)cccc12` [Dérivé n° 13], which inhibition at 0.6 µM ([1]; 600 nM/l) is on record?
Answer: 38%

Question: And the inhibition at 0.75 µM ([1]; 750 nM/l)?
Answer: 55%

Question: And the inhibition at 0.9 µM ([1]; 900 nM/l)?
Answer: 83.3%

Question: And the inhibition at 1.5 µM ([1]; 1 500 nM/l)?
Answer: 90.5%

Question: What about the LD50 [2] of the same compound?
Answer: 892 ± 31 mg/kg

Question: And the inhibition at 0.15 µM ([3]; 150 nM/l, contact time 3 minutes, read-out: % d'inhibition)?
Answer: 34.2%

Question: What about the inhibition at 0.3 µM ([3]; 300 nM/l, contact time 3 minutes, read-out: % d'inhibition) of the same compound?
Answer: 46.4%

Question: And the inhibition at 0.6 µM ([3]; 600 nM/l, contact time 3 minutes, read-out: % d'inhibition)?
Answer: 68.1%

Question: And the “Activité Morphine =100” value [3]?
Answer: 12,7

Question: And the Ki [4]?
Answer: 21 ± 5 nM

Question: Which inhibition at 0.0012 µM ([1]; 1,2 nM/l) does the source give for `CSCC[C@H](NC(=O)[C@H](Cc1ccccc1)NC(=O)CNC(=O)[C@@H](C)NC(=O)[C@@H](N)Cc1ccc(O)cc1)C(=O)NCCNS(=O)(=O)c1cccc2c(N(C)C)cccc12` [Dérivé n° 12, Tyr-D Ala- Gly-Phe-Met-NH-(CH2)2-NH-SO2 -X, dans lequel X est un groupe 5 diméthylamino-α-naphtyle] here?
Answer: 41.8%

Question: And the inhibition at 0.0018 µM ([1]; 1,8 nM/l)?
Answer: 50%

Question: What about the inhibition at 0.0024 µM ([1]; 2,4 nM/l) of the same compound?
Answer: 63%

Question: What about the LD50 [2] of the same compound?
Answer: 725 ± 25 mg/kg

Question: And the “D.A. 50/ sous cut.” value ([5]; catalepsy, subcutaneous route, female rats)?
Answer: 5 mg/kg

Question: What about the “coefficient d'activité” value [6] of the same compound?
Answer: ~35%

Question: And the inhibition at 0.012 µM ([3]; 12 nM/l, contact time 3 minutes, read-out: % d'inhibition)?
Answer: 28.3%

Question: What about the inhibition at 0.018 µM ([3]; 18 nM/l, contact time 3 minutes, read-out: % d'inhibition) of the same compound?
Answer: 35.5%

Question: What about the inhibition at 0.024 µM ([3]; 24 nM/l, contact time 3 minutes, read-out: % d'inhibition) of the same compound?
Answer: 51.3%

Question: And the inhibition at 0.06 µM ([3]; 60 nM/l, contact time 3 minutes, read-out: % d'inhibition)?
Answer: 76.3%

Question: What about the “Activité Morphine =100” value [3] of the same compound?
Answer: 147

Question: And the Ki [4]?
Answer: 5 ± 2 nM

Question: What about the “Nombre d'animaux non diarrhéiques” value [7, 8] of the same compound?
Answer: 6

Question: And the “Nombre d'animaux non diarrhéiques” value [7, 9]?
Answer: 10

Question: And the “Nombre d'animaux non diarrhéiques” value [7, 10]?
Answer: 10

Question: What about the “Nombre d'animaux non diarrhéiques” value [7, 11] of the same compound?
Answer: 3

Question: And the “Nombre d'animaux non diarrhéiques” value [7, 12]?
Answer: 6

Question: And the “Nombre d'animaux non diarrhéiques” value [7, 13]?
Answer: 10

Question: What about the “action antidiarrhéique” value ([7]; statement in words, 30 mg/kg, four hours) of the same compound?
Answer: protège tous les animaux

Question: With `CC(C)C[C@H](NC(=O)[C@H](Cc1ccccc1)NC(=O)CNC(=O)CNC(=O)[C@@H](N)Cc1ccc(O)cc1)C(=O)O` [Leu-enképhaline, reference compound] as the compound, how does the Ki [4] read?
Answer: 5 ± 1.8 nM

Question: Which “Nombre d'animaux non diarrhéiques” value [7, 8] does the source give for `COc1ccc2c3c1O[C@H]1[C@@H](O)C=C[C@H]4[C@@H](C2)N(C)CC[C@@]341` [Codéine base, Codéine] here?
Answer: 7

Question: What about the “Nombre d'animaux non diarrhéiques” value [7, 9] of the same compound?
Answer: 19

Question: And the “Nombre d'animaux non diarrhéiques” value [7, 10]?
Answer: 10

Question: And the “Nombre d'animaux non diarrhéiques” value [7, 11]?
Answer: 4

Question: And the “Nombre d'animaux non diarrhéiques” value [7, 12]?
Answer: 14

Question: What about the “Nombre d'animaux non diarrhéiques” value [7, 13] of the same compound?
Answer: 8

Question: What does the source list for `CN1CC[C@]23c4c5ccc(O)c4O[C@H]2[C@@H](O)C=C[C@H]3[C@H]1C5` [Morphine]?
Answer: D.A. 50/ sous cut. ([5]; rat, in vivo, sc): 2,5 mg/kg; Nombre d'animaux non diarrhéiques ([7]; rat, in vivo, po, 3 mg/kg): 9 and 5; Nombre d'animaux non diarrhéiques ([7]; rat, in vivo, po, 10 mg/kg): 10 and 8

Question: Which ED50 ([5]; Rattus norvegicus, sc, catalepsy, subcutaneous route, female rats, read-out: D.A. 50/ sous cut.) does the source give for `O=C(CCCN1CCC(O)(c2ccc(Cl)cc2)CC1)c1ccc(F)cc1` [Halopéridol] here?
Answer: 0.2 mg/kg

— patent EP0005658A1, “Peptide derivatives analogue to encephalines, process for their preparation and their therapeutical application” (Laboratoire le Brun S.A. Société dite:, priority 1978, dated 1979)
